Three molecules from US8614208B2, “Fused heterocyclic ring derivative and use thereof” (Takeda Pharmaceutical Company Limited, priority 2009, dated 2013) can be followed below.

The target of this assay is T1, Smo (Mus musculus, UniProt P56726).
T1 construct: endogenous in cells; host or cells: NIH-3T3 cells stably carrying the Gli reporter plasmid
T1 sequence (P56726 33-793): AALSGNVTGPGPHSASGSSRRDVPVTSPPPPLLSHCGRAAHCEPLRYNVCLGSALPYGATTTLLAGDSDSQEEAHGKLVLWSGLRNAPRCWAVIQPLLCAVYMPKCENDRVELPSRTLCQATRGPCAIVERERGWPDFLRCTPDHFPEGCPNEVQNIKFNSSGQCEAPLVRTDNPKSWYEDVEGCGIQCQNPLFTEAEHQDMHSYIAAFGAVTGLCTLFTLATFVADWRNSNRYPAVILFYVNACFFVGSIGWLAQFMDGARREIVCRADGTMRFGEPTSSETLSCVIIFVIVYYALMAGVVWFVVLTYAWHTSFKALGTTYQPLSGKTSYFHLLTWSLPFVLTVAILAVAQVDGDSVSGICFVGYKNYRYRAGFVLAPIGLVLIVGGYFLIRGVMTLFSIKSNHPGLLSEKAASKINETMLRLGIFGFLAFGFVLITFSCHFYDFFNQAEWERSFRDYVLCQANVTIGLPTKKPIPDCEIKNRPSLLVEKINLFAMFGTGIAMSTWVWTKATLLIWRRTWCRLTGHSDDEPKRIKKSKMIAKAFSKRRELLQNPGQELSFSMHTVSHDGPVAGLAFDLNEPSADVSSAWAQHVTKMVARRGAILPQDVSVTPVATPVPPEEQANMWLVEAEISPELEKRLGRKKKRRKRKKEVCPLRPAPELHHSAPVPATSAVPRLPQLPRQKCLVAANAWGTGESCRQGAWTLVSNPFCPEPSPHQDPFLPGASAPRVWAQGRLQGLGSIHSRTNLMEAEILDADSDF
Briefly: Gli reporter luciferase assay in NIH-3T3/Gli reporter cells stimulated with mouse Shh-N end fragment. Format: cell-based. The following applies: NIH3T3; 1 μM compound; NIH-3T3/Gli reporter cells with mouse Shh-N culture supernatant, 48 hr; luciferase activity, control without compound as 100; read-out: inhibitory rate (%) at 1 μM. As for the experimental part: Gli reporter plasmid was constructed by inserting 8×Gli-binding site and chicken δ-crystalline promoter into the upstream of luc+ of pGL3 (Promega).
prepared in reference to the base sequence described in GenBank accession No.; X02187, and chicken genome DNA (Clontech) as a template. PCR reaction was performed using Pfu Turbo (Stratagene) and following the attached protocol. The obtained 108 bp fragment was digested with restriction enzymes BglII and HindIII, and inserted into BglII-HindIII site of pGL3 to give plasmid pGL3/δ-cry promoter.
As 8×Gli-binding site, a sequence containing eight 9-bp Gli bound consensus sequences (GACCACCCA) described in Yoon et al., J. Biol. Chem., vol. 273, pages 3496-3501 (1998) was prepared from synthetic DNA. That is, two synthetic DNAs,
were heat treated at 95° C. for 2 minutes, and incubated at 37° C. for 1 hr for annealing to give a double stranded DNA of the above-mentioned two synthetic DNAs. The obtained double stranded DNA was digested with restriction enzymes BglII and KpnI, and the obtained DNA fragment was inserted into BglII-KpnI site of pGL3/δ-cry promoter to construct plasmid pGL3/δ-cry promoter, 8×Gli binding site, i.e., Gli reporter plasmid.
HEK293 cells were grown in D-MEM medium (Invitrogen) containing 10% fetal bovine serum in a 10 cm dish and pcDNA3.1/mShh-N was introduced into the cells using FuGENE6 (Roche Applied Science). Thereafter, the HEK293 cells were cultured in a carbon dioxide gas incubator at 37° C. for 24 hours, and the medium was exchanged with D-MEM medium (Invitrogen) containing 2% fetal bovine serum. After culturing for 48 hr, a culture supernatant containing recombinant type mouse Shh-N end fragment was obtained by filtration using a filter ([…]).
Using D-MEM (Invitrogen) containing 10% fetal bovine serum, expression plasmid pcDNA3.1 and Gli reporter plasmid (pGL3/δ-cry promoter, 8×Gli binding site) produced by the method of Experimental Example 1 were introduced into NIH-3T3 cells grown in a 10 cm dish by the use of FuGENE6 (Roche Applied Science).
After culture for 24 hr, the cells were recovered, suspended in D-MEM medium containing 10% fetal bovine serum and supplemented with Geneticin (Life Technologies Oriental, Inc.) to a final concentration of 500 μg/ml, diluted to 10^4 cells/ml, plated on a 96 well plate, and cultured in a carbon dioxide gas incubator at 37° C. to give Geneticin resistant transformed cell line.
The obtained transformed cell line was cultured in a 96 well plate, mouse Shh-N end fragment obtained in Experimental Example 3 was added, and NIH-3T3/Gli reporter cell, which is a cell line capable of induction of luciferase expression, was selected.
NIH-3T3/Gli reporter cells cultured in D-MEM (Invitrogen) containing 10% fetal bovine serum were plated in a 96 well white plate at 1×10^4 cells/well, and cultured overnight in a carbon dioxide gas incubator at 37° C. The medium was removed, a compound (50 μl) and culture supernatant of mouse Shh-N end fragment-expressing HEK293 (D-MEM medium containing 2% fetal bovine serum, 50 μl) were added, and the cells were cultured for 48 hr in a carbon dioxide gas incubator at 37° C. Bright-Glo (Promega, 50 μl) was added, and the mixture was stirred, after which luciferase activity was measured by EnVision (PerkinElmer). The inhibition rate was calculated based on the luciferase activity of the control without addition of the compound as 100.
Take `Cc1nc2c(c(OC(C)C)c(C(=O)NC3CCN(C(=O)CO)CC3)n2C)c(=O)n1-c1ccccc1` [Example 29, N-[1-(hydroxyacetyl)piperidin-4-yl]-2,7-dimethyl-5-(1-methylethoxy)-4-oxo-3-phenyl-4,7-dihydro-3H-pyrrolo[2,3-d]pyrimidine-6-carboxamide]: the inhibition at 1 µM turned out to be 99%. With `CCc1nc2c(c(OCC(F)(F)F)c(C(=O)NC3CCN(C(=O)CO)CC3)n2C)c(=O)n1CC(=O)c1ccc(F)cc1` [Example 33, 2-ethyl-3-[2-(4-fluorophenyl)-2-oxoethyl]-N-[1-(hydroxyacetyl)piperidin-4-yl]-7-methyl-4-oxo-5-(2,2,2-trifluoroethoxy)-4,7-dihydro-3H-pyrrolo[2,3-d]pyrimidine-6-carboxamide] the figure was 96%. With `CCc1nc2c(c(OC(C)C)c(C(=O)NC3CCN(C(=O)CO)CC3)n2C)c(=O)n1CC(=O)c1ccc(F)cc1` [Example 34, 2-ethyl-3-[2-(4-fluorophenyl)-2-oxoethyl]-N-[1-(hydroxyacetyl)piperidin-4-yl]-7-methyl-5-(1-methylethoxy)-4-oxo-4,7-dihydro-3H-pyrrolo[2,3-d]pyrimidine-6-carboxamide] the figure was 97%.
